Laboratory results published in PubChem BioAssay (NCI).
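A five-concentration, 48-hour dose response in 96-well plates underlies each endpoint, interpolated linearly between surrounding concentrations. At the GI50, growth is halved. Definition used: TGI = concentration required for complete inhibition of growth.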

Columns and labels:
Experiment in all cases: NCI-60 cell line screen, 48 h
[1] = tested on: NCI-H23 lung
[2] = tested on: HS 578T breast
[3] = tested on: K-562 leukemia
[4] = tested on: SW-620 colon
[5] = tested on: RXF 393 renal
[6] = tested on: EKVX NSCLC
[7] = tested on: KM12 colon
[8] = tested on: NCI-H460 lung
[9] = tested on: SK-MEL-5 melanoma
[10] = tested on: COLO 205 colon
[11] = tested on: SK-MEL-2 melanoma
[12] = tested on: HCC-2998 colon
[13] = tested on: SNB-75 CNS
[14] = tested on: HCT-116 colon
[15] = tested on: OVCAR-4 ovarian
[16] = tested on: PC-3 prostate
[17] = tested on: HT29 colon
[18] = tested on: HL-60(TB) leukemia
[19] = tested on: SF-268 CNS
[20] = tested on: M14 melanoma
[21] = tested on: MDA-MB-231 breast
[22] = tested on: UACC-257 melanoma
[23] = tested on: SF-539 CNS
[24] = tested on: LOX IMVI melanoma
[25] = tested on: TK-10 renal
[26] = tested on: MALME-3M melanoma
[27] = tested on: UO-31 renal
[28] = tested on: BT-549 breast
[29] = tested on: U251 CNS
[30] = tested on: CAKI-1 renal
[31] = tested on: SN12C renal
[32] = tested on: UACC-62 melanoma
[33] = tested on: HOP-92 NSCLC
[34] = tested on: OVCAR-5 ovarian
[35] = tested on: MCF7 breast
[36] = tested on: IGROV1 ovarian
[37] = tested on: SK-OV-3 ovarian
[38] = tested on: ACHN renal
[39] = tested on: RPMI-8226 leukemia
[40] = tested on: HOP-62 NSCLC
[41] = tested on: MDA-MB-435
[42] = tested on: 786-0 renal
[43] = tested on: A498 renal
[44] = tested on: MOLT-4 leukemia
[45] = tested on: NCI-H522 lung
[46] = tested on: T-47D breast
[47] = tested on: OVCAR-8 ovarian
[48] = tested on: SNB-19 CNS
[49] = tested on: DU-145 prostate
[50] = tested on: NCI/ADR-RES ovarian
[51] = tested on: SK-MEL-28 melanoma
[52] = tested on: OVCAR-3 ovarian
[53] = tested on: SF-295 CNS
[54] = tested on: A549 NSCLC
[55] = tested on: SR leukemia
[56] = tested on: HCT-15 colon
[57] = tested on: NCI-H226 lung
[58] = tested on: CCRF-CEM leukemia

SMILES: CNCCCn1c2c(c3ccc([N+](=O)[O-])cc3c1=O)C(=O)c1cc(OC)cnc1-2
- GI50 [1]: 40 nM
- TGI [1]: 267 nM
- GI50 [2]: 1170 nM
- TGI [2]: 5270 nM
- GI50 [3]: 43.5 nM
- TGI [3]: 1530 nM
- GI50 [4]: 34.9 nM
- TGI [4]: 1120 nM
- GI50 [5]: 68.5 nM
- TGI [5]: 372 nM
- GI50 [6]: 273 nM
- TGI [6]: 5830 nM
- GI50 [7]: 162 nM
- TGI [7]: 593 nM
- GI50 [8]: 19.4 nM
- TGI [8]: 185 nM
- GI50 [9]: 107 nM
- TGI [9]: 279 nM
- GI50 [10]: 56.9 nM
- TGI [10]: 636 nM
- GI50 [11]: 348 nM
- TGI [11]: 994 nM
- GI50 [12]: 204 nM
- TGI [12]: 1060 nM
- GI50 [13]: 134 nM
- TGI [13]: 2460 nM
- GI50 [14]: 28.3 nM
- TGI [14]: 186 nM
- GI50 [15]: 173 nM
- TGI [15]: 10100 nM
- GI50 [16]: 130 nM
- TGI [16]: 1880 nM
- GI50 [17]: 55.8 nM
- TGI [17]: 380 nM
- GI50 [18]: 41.3 nM
- TGI [18]: 921 nM
- GI50 [19]: 68.5 nM
- TGI [19]: 2170 nM
- GI50 [20]: 39.4 nM
- TGI [20]: 358 nM
- GI50 [21]: 265 nM
- TGI [21]: 1720 nM
- GI50 [22]: 175 nM
- TGI [22]: 953 nM
- GI50 [23]: 50.5 nM
- TGI [23]: 567 nM
- GI50 [24]: 25.9 nM
- TGI [24]: 136 nM
- GI50 [25]: 317 nM
- TGI [25]: 1500 nM
- GI50 [26]: 175 nM
- TGI [26]: 923 nM
- GI50 [27]: 34.1 nM
- TGI [27]: 221 nM
- GI50 [28]: 373 nM
- TGI [28]: 2560 nM
- GI50 [29]: 36.4 nM
- TGI [29]: 251 nM
- GI50 [30]: 34.6 nM
- TGI [30]: 342 nM
- GI50 [31]: 46.1 nM
- TGI [31]: 1200 nM
- GI50 [32]: 20 nM
- TGI [32]: 122 nM
- GI50 [33]: 237 nM
- TGI [33]: 2440 nM
- GI50 [34]: 135 nM
- TGI [34]: 882 nM
- GI50 [35]: 13.2 nM
- TGI [35]: 1060 nM
- GI50 [36]: 205 nM
- TGI [36]: 2000 nM
- GI50 [37]: 56.8 nM
- TGI [37]: 351 nM
- GI50 [38]: 36.1 nM
- TGI [38]: 149 nM
- GI50 [39]: 76.4 nM
- TGI [39]: 527 nM
- GI50 [40]: 30 nM
- TGI [40]: 139 nM
- GI50 [41]: 150 nM
- TGI [41]: 1170 nM
- GI50 [42]: 36.2 nM
- TGI [42]: 189 nM
- GI50 [43]: 33.8 nM
- TGI [43]: 276 nM
- GI50 [44]: 30.6 nM
- TGI [44]: 293 nM
- GI50 [45]: 83.8 nM
- TGI [45]: 464 nM
- GI50 [46]: 30.9 nM
- TGI [46]: 283 nM
- GI50 [47]: 86.1 nM
- TGI [47]: 1810 nM
- GI50 [48]: 39.4 nM
- TGI [48]: 2070 nM
- GI50 [49]: 52 nM
- TGI [49]: 1150 nM
- GI50 [50]: 61.3 nM
- TGI [50]: 1080 nM
- GI50 [51]: 387 nM
- TGI [51]: 2100 nM
- GI50 [52]: 174 nM
- TGI [52]: 617 nM
- GI50 [53]: 31.9 nM
- TGI [53]: 193 nM
- GI50 [54]: 69.6 nM
- TGI [54]: 359 nM
- GI50 [55]: 12.3 nM
- TGI [55]: 1750 nM
- GI50 [56]: 119 nM
- TGI [56]: 714 nM
- GI50 [57]: 94.6 nM
- TGI [57]: 245 nM
- GI50 [58]: 36.5 nM
- TGI [58]: 625 nM
